Patent EP0497091A1, “Bridged cyclic ketal derivatives” (GLAXO GROUP LIMITED, priority 1991, dated 1992)
≈ marks a conversion by molar mass, not a printed value.

Columns and labels:
[1] = target: T1, squalene synthase (Rattus norvegicus, UniProt Q02769); test: Inhibition of squalene synthase ([14C]squalene production from [2-14C]farnesylpyrophosphate); format: biochemical
T1 construct: from tissue; host or cells: rat liver homogenate
T1 sequence (Q02769 1-416): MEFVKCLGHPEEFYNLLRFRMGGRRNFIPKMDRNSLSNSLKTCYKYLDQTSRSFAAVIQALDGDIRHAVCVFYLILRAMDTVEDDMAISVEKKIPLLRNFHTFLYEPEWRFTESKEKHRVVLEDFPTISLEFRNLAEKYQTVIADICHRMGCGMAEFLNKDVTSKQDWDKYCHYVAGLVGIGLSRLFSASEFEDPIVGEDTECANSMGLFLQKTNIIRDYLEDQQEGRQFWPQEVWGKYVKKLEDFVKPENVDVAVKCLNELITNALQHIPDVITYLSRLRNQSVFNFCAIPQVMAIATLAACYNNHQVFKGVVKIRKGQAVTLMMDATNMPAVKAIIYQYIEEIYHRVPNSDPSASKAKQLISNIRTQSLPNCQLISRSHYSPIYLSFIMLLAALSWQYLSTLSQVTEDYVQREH
Description: A. Biller et al. in J. […] [¹⁴C]squalene is separated from unreacted substrate on thin layer chromatography plates and determined by liquid scintillation counting. […] Acta, Volume 877, 50-60 (1986) and modified to include measurement of cholesterol by high performance liquid chromatography (h.p.l.c.). […] A. […] [¹⁴C] Squalene was separated from unreacted substrate on thin layer chromatography plates and determined by liquid scintillation counting. Inhibition of squalene synthase was quantified by incubating rat liver homogenate with various concentrations of the test compound in the presence of [2-¹⁴C] farnesylpyrophosphate. The concentration of compound giving 50% inhibition of [¹⁴C] squalene production in a 30 minute assay was taken as the IC₅₀ value.

[2] = tested on: clinically relevant pathogens; test: In vitro antifungal activity, agar plate MIC determination; format: cell-based; details: Candida albicans
Experimental: The in vitro evaluation of the anti-fungal activity of compounds of the invention can be performed by determining the minimum inhibitory concentration (MIC) which is the concentration of the test compound in a suitable medium at which growth of a particular microorganism fails to occur.
[¹⁴C] Squalene was separated from unreacted substrate on thin layer chromatography plates and determined by liquid scintillation counting. Inhibition of squalene synthase was quantified by incubating rat liver homogenate with various concentrations of the test compound in the presence of [2-¹⁴C] farnesylpyrophosphate. The concentration of compound giving 50% inhibition of [¹⁴C] squalene production in a 30 minute assay was taken as the IC₅₀ value. […] In practice, a series of agar plates, each having the test compound incorporated at a particular concentration, was inoculated with a standard culture of a clinically relevant pathogen, for example Candida albicans, and each plate was then incubated at 37 °C for 24 to 48 hours depending on the pathogen.

SMILES | IC50 [1] | MIC [2]
CC[C@H](C)C[C@H](C)CCC(=O)O[C@@H]1[C@@H](O)[C@@]2(C/C=C(\C)[C@@H](OC(C)=O)[C@H](C)Cc3ccccc3)O[C@H](C(=O)O)[C@@](O)(C(=O)O)[C@]1(C(=O)O)O2 (relative stereo) [Example 11, [1S-[1α[(E),4R*,5S*],3α,4β,5α,6α(4S*,6R*),7β]] 1-(4-Acetyloxy-3,5-dimethyl-6-phenyl-2-hexenyl)-4,6,7-trihydroxy-2,8-dioxabicyclo[3.2.1]octane-3,4,5-tricarboxylic acid, 6-(4,6-dimethyloctanoate)] | < 100 nM | 0.1 to 31 µg/mL (≈ 0.144 to 44.7 µM)
CCC(C)CC(C)CCC(=O)OC1C(O)C2(CCC(O)C(O)C(C)Cc3ccccc3)OC(C(=O)O)C(O)(C(=O)O)C1(C(=O)O)O2 (stereo not drawn) [Example 18, [1S-[1α(3R*S*,4R*,5S*),3α,4β,5α,6α(4S*,6R*),7β]] 1-(3,4-Dihydroxy-5-methyl-6-phenylhexyl)-4,6,7-trihydroxy-2,8-dioxabicyclo[3.2.1]octane-3,4,5-tricarboxylic acid, 6-(4,6-dimethyloctanoate)] | < 100 nM | 0.1 to 31 µg/mL (≈ 0.153 to 47.3 µM)
C=C(CC[C@]12O[C@H](C(=O)O)[C@@](O)(C(=O)O)[C@](C(=O)O)(O1)[C@H](OC(=O)CCCC1CCCCC1)[C@H]2O)[C@@H](OC(C)=O)[C@H](C)Cc1ccccc1 (relative stereo) [Example 41, [1S-[1α(4R*,5S*),3α,4β,5α,6α,7β]] 1-(4-Acetyloxy-5-methyl-3-methylene-6-phenylhexyl)-4,6,7-trihydroxy-2,8-dioxabicyclo[3.2.1]octane-3,4,5-tricarboxylic acid, 6-(4-cyclohexylbutanoate)] | < 100 nM | 0.1 to 31 µg/mL (≈ 0.145 to 44.9 µM)
C=C(CC[C@]12O[C@H](C(=O)O)[C@@](O)(C(=O)O)[C@](C(=O)O)(O1)[C@H](OC(=O)/C=C/[C@@H](C)C[C@@H](C)CC)[C@H]2O)[C@H](O)[C@H](C)Cc1ccccc1 (relative stereo) [Example 1, [1S-[1α(4S*,5S*),3α,4β,5α,6α(2E,4R*,6R*),7β]] 1-(4-Hydroxy-5-methyl-3-methylene-6-phenylhexyl)-4,6,7-trihydroxy-2,8-dioxabicyclo[3.2.1]octane-3,4,5-tricarboxylic acid, 6-(4,6-dimethyl-2-octenoate)] | < 100 nM | 0.1 to 31 µg/mL (≈ 0.154 to 47.8 µM)
C=C(CC[C@]12O[C@H](C(=O)O)[C@@](O)(C(=O)O)[C@](C(=O)O)(O1)[C@H](OC(=O)CCCCCCCCC)[C@H]2O)[C@@H](OC(C)=O)[C@H](C)Cc1ccccc1 (relative stereo) [6-decanoate in Example 30, [1S-[1α(4R*,5S*),3α,4β,5α,6α,7β]] 1-(4-acetyloxy-5-methyl-3-methylene-6-phenylhexyl)-4,6,7-trihydroxy-2,8-dioxabicyclo[3.2.1]octane-3,4,5-tricarboxylic acid, 6-decanoate] | < 100 nM | 0.1 to 31 µg/mL (≈ 0.144 to 44.7 µM)
C=C(CC[C@]12O[C@H](C(=O)O)[C@@](O)(C(=O)O)[C@](C(=O)O)(O1)[C@H](OC(=O)CCCCCCC)[C@H]2O)[C@@H](OC(C)=O)[C@H](C)Cc1ccccc1 (relative stereo) [Example 31, [1S-[1α(4R*,5S*),3α,4β,5α,6α,7β]] 1-(4-Acetyloxy-5-methyl-3-methylene-6-phenylhexyl)-4,6,7-trihydroxy-2,8-dioxabicyclo[3.2.1]octane-3,4,5-tricarboxylic acid, 6-octanoate] | < 100 nM | 0.1 to 31 µg/mL (≈ 0.15 to 46.6 µM)
C=C(CC[C@]12O[C@H](C(=O)O)[C@@](O)(C(=O)O)[C@](C(=O)O)(O1)[C@H](OC(=O)CC=CCCCC)[C@H]2O)[C@@H](OC(C)=O)[C@H](C)Cc1ccccc1 (relative stereo) [Example 64, [1S-[1α(4R*,5S*),3α,4β,5α,6α,7β]] 1-(4-Acetyloxy-5-methyl-3-methylene-6-phenylhexyl)-4,6,7-trihydroxy-2,8-dioxabicyclo[3.2.1]octane-3,4,5-tricarboxylic acid, 6-[(E/Z)-3-octenoate]] | < 100 nM | 0.1 to 31 µg/mL (≈ 0.151 to 46.8 µM)
